Laboratory results published in paper PMC10962542, “Inhibition of Aurora‐A/N‐Myc Protein–Protein Interaction Using Peptidomimetics: Understanding the Role of Peptide Cyclization” (Chembiochem, 2023).
Where a SMILES comes first, the peptide text is derived from it. Bridges are numbered along the chain shown (N, C = ends).

Tests used:
[1] = target: T1, N‐Myc/Aurora‐A interaction (Aurora‐A122‐403‐C290A/C393A) (Homo sapiens, UniProt O14965, C290A/C393A); experiment: competition fluorescence anisotropy (FA) assay against fluorescein labelled N‐Myc61‐89; type: binding; details: SD; also: equilibrated 2 h at room temperature
T1 construct: Aurora‐A 122‐403‐C290A/C393A protein was produced as described previously; made in house
T1 sequence (O14965 122-403 C290A/C393A): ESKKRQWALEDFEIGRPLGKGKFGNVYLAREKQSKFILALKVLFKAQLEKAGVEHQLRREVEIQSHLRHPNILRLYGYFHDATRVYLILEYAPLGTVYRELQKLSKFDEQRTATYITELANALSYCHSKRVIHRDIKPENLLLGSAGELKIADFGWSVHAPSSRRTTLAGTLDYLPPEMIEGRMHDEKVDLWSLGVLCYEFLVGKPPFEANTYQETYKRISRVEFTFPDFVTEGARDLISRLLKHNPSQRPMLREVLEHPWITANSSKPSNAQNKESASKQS
Protocol: Fluorescence anisotropy (FA) assays: All assays were performed using 384‐well plates (Greiner Bio‐one, UK). […] All samples were prepared in 25 mM Tris, 150 mM NaCl, 5 mM MgCl2, pH 7.5, and tested in triplicate using an EnVisionTM 2103 MultiLabel plate reader (Perkin Elmer; Waltham, MA, USA). The parameters were set as follows: Excitation wavelength=480 nm (30 nm bandwidth) and emission wavelength=535 nm (30 nm bandwidth). Measured data were processed and analysed as previously described.[31] Specifically, the perpendicular intensity (P) and parallel intensity (S) were subtracted by the control values and used for calculations of intensity and anisotropy using the following Equations 1, 2, 3, 4, and 5: (1) I=2PG+S (2) r=S-PG (3) Lb=r-rmin/λrmax-r+r-rmin (4) [drawing 1] (5) y=rmax+rmin-rmax/1+(x/x0)^p
For competition FA assays, the average anisotropy and the average standard deviation of the values derived from equation (2) were calculated and fit to a sigmoidal logistic model (equation (5)) using Origin 2021. […] Results are reported as IC50±SD, with data points representing the mean of three replicates and error bars indicating the corresponding SD. Where applicable, ΔΔG was determined as follows: ΔΔG=−RT ln (ΔIC50).

[2] = circular dichroism (CD) spectroscopy; type: physicochemical; details: 150 mM NaCl, 5 mM MgCl2, pH 7.5, 5 °C, n=2, free‐thiol (red) samples with 5 mol equivalents TCEP; for MRE222 (mean residue ellipticity at 222 nm): 25 mM Tris, mean ± SD, SD; for % Helicity (estimated): from MRE222 by equation 7, 25 mM Tris
Protocol: Circular dichroism (CD): All samples were prepared in Tris buffer (25 mM Tris, 150 mM NaCl, 5 mM MgCl2, pH 7.5) with the exception of free sulfhydryl peptides, to which Tris(2‐carboxyethyl)phosphine (TCEP; 5 mol eq. relative to the peptide) was added. CD spectra were recorded using an APP Chirascan CD spectropolarimeter and 1 mm pathlength quartz cuvettes. Sample concentrations were typically 30–120 μM, as determined by UV−V absorption based on a tryptophan extinction coefficient of 5600 M^−1 cm^−1 and, for mal‐constrained variants, a maleimide coefficient of 1700 M^−1 cm^−1.[16, 32] […] Spectra were recorded in duplicate at 5 °C, over wavelengths ranging from 290 to 180 nm, with data collected every 1 nm (1 nm s^−1). A background spectrum for CD buffer alone was also recorded and background ellipticity values were subtracted from raw sample ellipticity values (θ) when calculating mean residue ellipticities (MREs) using Equation 6: (6) MRE=(θλ-θ0)xMw/nxlxc
Where [θ]λ is the observed ellipticity at a given wavelength λ in mdeg, [θ]0 is the ellipticity observed for the buffer, Mw =molar weight of the peptide in g mol^−1, n=number of residues; c=sample concentration (mg mL^−1); l=pathlength of the cuvette in mm. Estimates of peptide % helicity were made using Equation 7, [33] (7) %helicity=(MRE222-MREcoil)x100/-425001-3/n
where MRE222 is the MRE value at 222 nm, MREcoil=640‐45T (with T in °C)=415 deg cm^2 dmol^−1 res^−1 at 5 °C, and n is the number of backbone amide bonds including the N‐terminal acetyl.

Compound | IC50 [1] [µM] | MRE222 (mean residue ellipticity at 222 nm) [2] [deg cm^−1 dmol^−1 res^−1] | % Helicity (estimated) [2] [%]
CC(=O)N[C@@H](CC(C)C)C(=O)N[C@@H](CO)C(=O)N1CCC[C@H]1C(=O)N[C@@H](CO)C(=O)N[C@@H](CCCNC(=N)N)C(=O)NCC(=O)N[C@@H](Cc1ccccc1)C(=O)N[C@@H](C)C(=O)N[C@@H](CCC(=O)O)C(=O)N[C@@H](Cc1c[nH]cn1)C(=O)N[C@@H](CO)C(=O)N[C@@H](CO)C(=O)N[C@@H](CCC(=O)O)C(=O)N1CCC[C@H]1C(=O)N1CCC[C@H]1C(=O)N[C@@H](CO)C(=O)N[C@@H](Cc1c[nH]c2ccccc12)C(=O)N[C@H](C(=O)N[C@H](C(=O)N[C@@H](CCC(=O)O)C(=O)N[C@H]1CSSC[C@@H](C(=O)N[C@@H](CCC(=O)O)C(=O)N[C@@H](CC(C)C)C(=O)N[C@@H](Cc2c[nH]c3ccccc23)C(=O)NCC(N)=O)NC(=O)[C@H](CCC(=O)O)NC(=O)[C@H](CC(C)C)NC(=O)[C@H](CC(C)C)NC1=O)[C@@H](C)O)C(C)C [N-Myc 61-89 M81C/N85C ox] (Ac-LSPSRGFAEHSSEPPSWVTECLLECELWG-NH2; disulfide 21-25) | 92 ± 13 | -2894 ± 119 | 9 ± 1
CC(=O)N[C@@H](CC(C)C)C(=O)N[C@@H](CO)C(=O)N1CCC[C@H]1C(=O)N[C@@H](CO)C(=O)N[C@@H](CCCNC(=N)N)C(=O)NCC(=O)N[C@@H](Cc1ccccc1)C(=O)N[C@@H](C)C(=O)N[C@@H](CCC(=O)O)C(=O)N[C@@H](Cc1c[nH]cn1)C(=O)N[C@@H](CO)C(=O)N[C@@H](CO)C(=O)N[C@@H](CCC(=O)O)C(=O)N1CCC[C@H]1C(=O)N1CCC[C@H]1C(=O)N[C@@H](CO)C(=O)N[C@@H](Cc1c[nH]c2ccccc12)C(=O)N[C@H](C(=O)N[C@H](C(=O)N[C@@H](CCC(=O)O)C(=O)N[C@@H](CS)C(=O)N[C@@H](CC(C)C)C(=O)N[C@@H](CC(C)C)C(=O)N[C@@H](CCC(=O)O)C(=O)N[C@@H](CS)C(=O)N[C@@H](CCC(=O)O)C(=O)N[C@@H](CC(C)C)C(=O)N[C@@H](Cc1c[nH]c2ccccc12)C(=O)NCC(N)=O)[C@@H](C)O)C(C)C [N-Myc 61-89M81C/N85C red] (Ac-LSPSRGFAEHSSEPPSWVTECLLECELWG-NH2) | 164 ± 6 | -2198 ± 93 | 7 ± 1
CSCC[C@H](NC(=O)[C@H](CS)NC(=O)[C@@H](NC(=O)[C@@H](NC(=O)[C@H](Cc1c[nH]c2ccccc12)NC(=O)[C@H](CS)NC(=O)[C@@H]1CCCN1C(=O)[C@@H]1CCCN1C(=O)[C@H](CCC(=O)O)NC(=O)[C@H](CO)NC(=O)[C@H](CO)NC(=O)[C@H](Cc1c[nH]cn1)NC(=O)[C@H](CCC(=O)O)NC(=O)[C@H](C)NC(=O)[C@H](Cc1ccccc1)NC(=O)CNC(=O)[C@H](CCCNC(=N)N)NC(=O)[C@H](CO)NC(=O)[C@@H]1CCCN1C(=O)[C@H](CO)NC(=O)[C@H](CC(C)C)NC(C)=O)C(C)C)[C@@H](C)O)C(=O)N[C@@H](CC(C)C)C(=O)N[C@@H](CC(C)C)C(=O)N[C@@H](CCC(=O)O)C(=O)N[C@@H](CC(N)=O)C(=O)N[C@@H](CCC(=O)O)C(=O)N[C@@H](CC(C)C)C(=O)N[C@@H](Cc1c[nH]c2ccccc12)C(=O)NCC(N)=O [N-Myc 61-89S76C/E80C red] (Ac-LSPSRGFAEHSSEPPCWVTCMLLENELWG-NH2) | 140 ± 18 | -2428 ± 25 | 7 ± 1
CSCC[C@H](NC(=O)[C@H](CS)NC(=O)[C@@H](NC(=O)[C@@H](NC(=O)[C@H](Cc1c[nH]c2ccccc12)NC(=O)[C@H](CO)NC(=O)[C@@H]1CCCN1C(=O)[C@@H]1CCCN1C(=O)[C@H](CCC(=O)O)NC(=O)[C@H](CO)NC(=O)[C@H](CO)NC(=O)[C@H](Cc1c[nH]cn1)NC(=O)[C@H](CCC(=O)O)NC(=O)[C@H](C)NC(=O)[C@H](Cc1ccccc1)NC(=O)CNC(=O)[C@H](CCCNC(=N)N)NC(=O)[C@H](CO)NC(=O)[C@@H]1CCCN1C(=O)[C@H](CO)NC(=O)[C@H](CC(C)C)NC(C)=O)C(C)C)[C@@H](C)O)C(=O)N[C@@H](CC(C)C)C(=O)N[C@@H](CC(C)C)C(=O)N[C@@H](CS)C(=O)N[C@@H](CC(N)=O)C(=O)N[C@@H](CCC(=O)O)C(=O)N[C@@H](CC(C)C)C(=O)N[C@@H](Cc1c[nH]c2ccccc12)C(=O)NCC(N)=O [N-Myc 61-89E80C/E84C red] (Ac-LSPSRGFAEHSSEPPSWVTCMLLCNELWG-NH2) | 111 ± 5 | -2562 ± 106 | 8 ± 1
CSCC[C@@H]1NC(=O)[C@H](CCC(=O)O)NC(=O)[C@@H](NC(=O)[C@@H](NC(=O)[C@H](Cc2c[nH]c3ccccc23)NC(=O)[C@H](CO)NC(=O)[C@@H]2CCCN2C(=O)[C@@H]2CCCN2C(=O)[C@H](CCC(=O)O)NC(=O)[C@H](CO)NC(=O)[C@H](CO)NC(=O)[C@H](Cc2c[nH]cn2)NC(=O)[C@H](CCC(=O)O)NC(=O)[C@H](C)NC(=O)[C@H](Cc2ccccc2)NC(=O)CNC(=O)[C@H](CCCNC(=N)N)NC(=O)[C@H](CO)NC(=O)[C@@H]2CCCN2C(=O)[C@H](CO)NC(=O)[C@H](CC(C)C)NC(C)=O)C(C)C)CSSC[C@@H](C(=O)N[C@@H](CCC(=O)O)C(=O)N[C@@H](CC(N)=O)C(=O)N[C@@H](CCC(=O)O)C(=O)N[C@@H](CC(C)C)C(=O)N[C@@H](Cc2c[nH]c3ccccc23)C(=O)NCC(N)=O)NC(=O)[C@H](CC(C)C)NC1=O [N-Myc 61-89T79C/L83C ox] (Ac-LSPSRGFAEHSSEPPSWVCEMLCENELWG-NH2; disulfide 19-23) | 75 ± 8 | -1951 ± 84 | 6 ± 1
CSCC[C@H](NC(=O)[C@H](CCC(=O)O)NC(=O)[C@@H](NC(=O)[C@@H](NC(=O)[C@H](Cc1c[nH]c2ccccc12)NC(=O)[C@H](CO)NC(=O)[C@@H]1CCCN1C(=O)[C@@H]1CCCN1C(=O)[C@H](CCC(=O)O)NC(=O)[C@H](CO)NC(=O)[C@H](CO)NC(=O)[C@H](Cc1c[nH]cn1)NC(=O)[C@H](CCC(=O)O)NC(=O)[C@H](C)NC(=O)[C@H](Cc1ccccc1)NC(=O)CNC(=O)[C@H](CCCNC(=N)N)NC(=O)[C@H](CO)NC(=O)[C@@H]1CCCN1C(=O)[C@H](CO)NC(=O)[C@H](CC(C)C)NC(C)=O)C(C)C)[C@@H](C)O)C(=O)N[C@@H](CC(C)C)C(=O)N[C@H]1CSSC[C@@H](C(=O)N[C@@H](Cc2c[nH]c3ccccc23)C(=O)NCC(N)=O)NC(=O)[C@H](CCC(=O)O)NC(=O)[C@H](CC(N)=O)NC(=O)[C@H](CCC(=O)O)NC1=O [N-Myc 61-89L83C/L87C ox] (Ac-LSPSRGFAEHSSEPPSWVTEMLCENECWG-NH2; disulfide 23-27) | 103 ± 11 | -2223 ± 37 | 7 ± 1
